In the supplement of paper PMC9103864:

How the values were obtained:
[1] = tested on: BMSC (primary human bone marrow mesenchymal stromal cells); experiment: absolute EC50 for viability; higher = less sensitive
[2] = tested on: BMSC (primary human bone marrow mesenchymal stromal cells); experiment: drug sensitivity score (DSS); higher = more sensitive

| SMILES | absolute EC50 for viability [1] [µM] | drug sensitivity score [2] |
| --- | --- | --- |
| COCCNCc1ccc(-c2cc3nccc(Oc4ccc(NC(=S)NC(=O)Cc5ccc(F)cc5)cc4F)c3s2)nc1 [Glesatinib] | > 2.5 | 5.1 |
| CN1CCN(C2CCN(C(=O)Nc3cc(Oc4ccc(NC(=O)C5(C(=O)Nc6ccc(F)cc6)CC5)c(F)c4)ccn3)CC2)CC1 [Golvatinib] | > 2.5 | 2.7 |
| CC(C)C[C@H](NC(=O)[C@@H](COC(C)(C)C)NC(=O)[C@H](Cc1ccc(O)cc1)NC(=O)[C@H](CO)NC(=O)[C@H](Cc1c[nH]c2ccccc12)NC(=O)[C@H](Cc1cnc[nH]1)NC(=O)[C@@H]1CCC(=O)N1)C(=O)N[C@@H](CCCNC(=N)N)C(=O)N1CCC[C@H]1C(=O)NNC(N)=O [Goserelin] | > 10 | 0 |
| O=S(=O)(c1cccc2c(O)nccc12)N1CCCNCC1 [Hydroxyfasudil] | > 19 | 1 |
| NC(=O)NO [Hydroxyurea] | > 1000 | -2.9 |
| COc1cc2c(cc1-c1c(C)noc1C)ncc1[nH]c(=O)n([C@H](C)c3ccccn3)c12 [I-BET151] | > 10 | 3.5 |
| O=C(O)c1ccc(O)c2ncccc12 [IOX-1] | > 100 | 0.6 |
| O=C(O)CNC(=O)c1c(O)c2ccccc2n(Cc2ccccc2)c1=O [IOX-2] | > 50 | 1.9 |
| C=CC(=O)N1CCC[C@@H](n2nc(-c3ccc(Oc4ccccc4)cc3)c3c(N)ncnc32)C1 [Ibrutinib] | > 1 | 0 |
| C#Cc1cccc(Nc2ncnc3cc4c(cc23)OCCOCCOCCO4)c1 [Icotinib] | > 10 | 2.1 |
| CC(=O)[C@]1(O)Cc2c(O)c3c(c(O)c2[C@@H](O[C@H]2C[C@H](N)[C@H](O)[C@H](C)O2)C1)C(=O)c1ccccc1C3=O [Idarubicin] | 0.233 | 6.6 |
| COc1cc(C(=O)O)ccc1NC(=O)[C@@H]1N[C@@H](CC(C)(C)C)[C@](C#N)(c2ccc(Cl)cc2F)[C@H]1c1cccc(Cl)c1F [Idasanutlin] | 0.576 | 13.3 |
| CC[C@H](Nc1ncnc2[nH]cnc12)c1nc2cccc(F)c2c(=O)n1-c1ccccc1 [Idelalisib] | > 10 | 2.7 |
| Cc1ccc(NC(=O)c2ccc(CN3CCN(C)CC3)cc2)cc1Nc1nccc(-c2cccnc2)n1 [Imatinib] | > 10 | 5.8 |
| CC(C)Cn1cnc2c(N)nc3ccccc3c21 [Imiquimod] | > 2.5 | 0 |
| O=C(Nc1ccncc1)C(=O)c1cn(Cc2ccc(Cl)cc2)c2ccccc12 [Indibulin] | > 10 | 0 |
| CCN1CCN(c2ccc(Nc3cc(N(C)C(=O)Nc4c(Cl)c(OC)cc(OC)c4Cl)ncn3)cc2)CC1 [Infigratinib] | > 1 | 0 |
| CC(C)NC[C@@H](C(=O)N1CCN(c2ncnc3c2[C@H](C)C[C@H]3O)CC1)c1ccc(Cl)cc1 [Ipatasertib] | > 10 | 4.7 |
| CCC(C)n1ncn(-c2ccc(N3CCN(c4ccc(OCC5COC(Cn6cncn6)(c6ccc(Cl)cc6Cl)O5)cc4)CC3)cc2)c1=O (stereo unspecified) [Itraconazole] | > 5 | 1.3 |
| N#Cc1ccnc(N2C(=O)CC[C@H]2C(=O)N(c2cncc(F)c2)[C@H](C(=O)NC2CC(F)(F)C2)c2ccccc2Cl)c1 [Ivosidenib] | > 10 | 0 |

| SMILES | absolute EC50 for viability [1] [µM] | drug sensitivity score [2] |
| --- | --- | --- |
| C/C(=C\c1csc(C)n1)[C@@H]1C[C@@H]2O[C@]2(C)CCC[C@H](C)[C@H](O)[C@@H](C)C(=O)C(C)(C)[C@@H](O)CC(=O)N1 [Ixabepilone] | > 1 | 0.5 |
| CC(C)C[C@H](NC(=O)CNC(=O)c1cc(Cl)ccc1Cl)B(O)O [Ixazomib] | > 1 | 0.4 |
| Nc1cc(COc2c(Cl)cc(C[C@H](N)C(=O)O)cc2Cl)c2oc(-c3ccccc3)nc2c1 [JPH203] | > 5 | 0 |
| Cc1sc2c(c1C)C(c1ccc(Cl)cc1)=N[C@@H](CC(=O)OC(C)(C)C)c1nnc(C)n1-2 [JQ1] | > 10 | 5.3 |
| CC(C)NC(=O)COc1cccc(-c2nc(Nc3ccc4[nH]ncc4c3)c3ccccc3n2)c1 [KD025] | > 5 | 0 |
| CS(=O)(=O)CCNCc1ccc(-c2ccc3ncnc(Nc4ccc(OCc5cccc(F)c5)c(Cl)c4)c3c2)o1 [Lapatinib] | > 1 | 0.1 |
| O=C(Nc1cnn2ccc(N3CCC[C@@H]3c3cc(F)ccc3F)nc12)N1CC[C@H](O)C1 [Larotrectinib] | > 1 | 0 |
| Oc1ccc2c(c1)CC[C@H](c1ccccc1)[C@@H]2c1ccc(OCCN2CCCC2)cc1 [Lasofoxifene] | > 1 | 0.4 |
| Nc1cccc2c1CN(C1CCC(=O)NC1=O)C2=O (stereo unspecified) [Lenalidomide] | > 100 | 0 |
| COc1cc2nccc(Oc3ccc(NC(=O)NC4CC4)c(Cl)c3)c2cc1C(N)=O [Lenvatinib] | > 2.5 | 5.2 |
| N#Cc1ccc(C(c2ccc(C#N)cc2)n2cncn2)cc1 [Letrozole] | > 10 | 0 |
| Cc1ccc(F)c(NC(=O)Nc2ccc(-c3cccc4[nH]nc(N)c34)cc2)c1 [Linifanib] | > 1 | 0 |
| C[C@]1(O)C[C@@H](c2nc(-c3ccc4ccc(-c5ccccc5)nc4c3)c3c(N)nccn32)C1 [Linsitinib] | > 10 | 2.9 |
| CCNCCS(=O)(=O)NC[C@@]1(c2ccccc2)SC(NC(=O)C(C)(C)C)=NN1C(=O)C(C)(C)C [Litronesib] | > 1 | 0 |
| Nc1nc(OCc2cc(Br)cs2)c2[nH]cnc2n1 [Lomeguatrib] | > 10 | 0 |
| NC(=O)N1CCC(CC(=O)N2CCC([C@H]3c4ncc(Br)cc4CCc4cc(Cl)cc(Br)c43)CC2)CC1 [Lonafarnib] | > 100 | 4.4 |
| Cc1c(F)cc(C(=O)NC2CC2)cc1-c1ccc(C(=O)NCC(C)(C)C)cn1 [Losmapimod] | > 10 | 0 |
| CC[C@H](C)C(=O)O[C@H]1C[C@@H](C)C=C2C=C[C@H](C)[C@H](CC[C@@H]3C[C@@H](O)CC(=O)O3)[C@H]21 [Lovastatin] | > 10 | 0 |
| CNC(=O)c1cccc2cc(Oc3ccnc4cc(OCC5(N)CC5)c(OC)cc34)ccc12 [Lucitanib] | > 10 | 9 |
| CCNC(=O)c1noc(-c2cc(C(C)C)c(O)cc2O)c1-c1ccc(CN2CCOCC2)cc1 [Luminespib] | 0.0152 | 16.8 |

| SMILES | absolute EC50 for viability [1] [µM] | drug sensitivity score [2] |
| --- | --- | --- |
| O=C(O)CC[C@H]1CC[C@@](c2cc(F)ccc2F)(S(=O)(=O)c2ccc(Cl)cc2)CC1 [MK-0752] | > 1 | 0 |
| NC1(c2ccc(-c3nc4ccn5c(=O)[nH]nc5c4cc3-c3ccccc3)cc2)CCC1 [MK-2206] | > 1 | 5.8 |
| O=C(c1cccc(Cl)c1F)N1CCN(Cc2cccc(Nc3nccs3)n2)CC1 [MK-8745] | > 10 | 1.3 |
| Cn1cc(-c2cnn3c(N)c(Br)c([C@@H]4CCCNC4)nc23)cn1 [MK-8776] | > 2.5 | 1 |
| Cc1cnc(-c2ccccc2C(C)C)nc1NCc1ccc(-n2ccnn2)cc1 [ML323] | > 10 | 0 |
| O=C(CCNC(=O)c1ccc(OC(F)(F)F)cc1)N[C@@H]1CCCc2ccccc21 [ML390] | > 50 | 0.3 |
| O=C(Nc1cccc(NC(=O)c2cccc(O)c2O)c1)c1cccc(O)c1O [MST-312] | 1.22 | 9.7 |
| CNC(=O)[C@@H](NC(=O)[C@H](CC(C)C)[C@H](O)C(=O)NO)C(C)(C)C [Marimastat] | > 10 | 0 |
| Cc1ccc(NC(=O)c2ccc(CN3CCN(C)CC3)cc2)cc1Nc1nc(-c2cccnc2)cs1 [Masitinib] | 2.86 | 8.8 |
| CC(=O)O[C@]1(C(C)=O)CC[C@H]2[C@@H]3C=C(C)C4=CC(=O)CC[C@]4(C)[C@H]3CC[C@@]21C [Megestrol acetate] | > 10 | 0 |
| CCN(CC)CCCC(C)Nc1c2ccc(Cl)cc2nc2ccc(OC)cc12 (stereo unspecified) [Mepacrine] | 1.58 | 17.7 |
| S=c1[nH]cnc2nc[nH]c12 [Mercaptopurine] | > 10 | 11.1 |
| Cc1ccc(C(=O)Nc2ccc(Oc3cc4cnn(C)c4cc3-c3cn[nH]c3)c(F)c2)c(=O)n1-c1ccc(F)cc1 [Merestinib] | > 1 | 1.4 |
| CN(C)C(=N)NC(=N)N [Metformin] | > 100 | 0 |
| CN(Cc1cnc2nc(N)nc(N)c2n1)c1ccc(C(=O)N[C@@H](CCC(=O)O)C(=O)O)cc1 [Methotrexate] | > 5 | 4.7 |
| C[C@H]1C[C@@H]2[C@H]([C@@H](O)C[C@@]3(C)[C@H]2CC[C@]3(O)C(=O)CO)[C@@]2(C)C=CC(=O)C=C12 [Methylprednisolone] | > 10 | 0 |
| CO[C@@H]1[C@H](N(C)C(=O)c2ccccc2)C[C@H]2O[C@]1(C)n1c3ccccc3c3c4c(c5c6ccccc6n2c5c31)C(=O)NC4 [Midostaurin] | 1.65 | 7.5 |
| CNC(=O)c1nn(C)c2c1C(C)(C)Cc1cnc(Nc3ccc(N4CCN(C)CC4)cc3)nc1-2 [Milciclib] | > 10 | 10.1 |
